According to PubChem BioAssay (NCI):
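Protocol summary: plate cells (96-well), add compound at 5 concentrations, incubate 48 h, interpolate endpoints linearly. Abbreviation: GI50, concentration required for 50% inhibition of growth. TGI: concentration producing complete growth inhibition.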

How the values were obtained:
Test in all cases: inhibition of tumour cell growth, NCI panel, 48 h
[1] = system: NCI-H226 lung
[2] = system: RXF 393 renal
[3] = system: SR leukemia
[4] = system: ACHN renal
[5] = system: SF-539 CNS
[6] = system: SNB-19 CNS
[7] = system: DU-145 prostate
[8] = system: HS 578T breast
[9] = system: NCI/ADR-RES ovarian
[10] = system: MDA-MB-231 breast

SMILES	TGI [1]	TGI [2]	TGI [3]	TGI [4]	TGI [5]	TGI [6]	GI50 [7]	TGI [7]	GI50 [8]	TGI [8]	GI50 [9]	TGI [9]	GI50 [1]	GI50 [2]	GI50 [3]	GI50 [4]	GI50 [6]	GI50 [5]	GI50 [10]	TGI [10]
Cc1cccc(C)c1NC(=O)C(=O)C1C(=O)N(c2ccccc2)N=C1N (configuration not stated)	> 100 µM	> 100 µM	> 100 µM	> 100 µM	> 100 µM	> 100 µM	–	–	–	–	–	–	–	–	–	–	–	–	–	–
C/C=C/C1(NS(=O)(=O)c2ccc(C)cc2)CCC(C(C)(C)C)CC1 (configuration not stated)	44.4 µM	42.3 µM	32.9 µM	> 100 µM	44.1 µM	> 100 µM	–	–	–	–	–	–	–	–	–	–	–	–	–	–
CCCNc1nc(-c2ccc(OC)cc2)nc2ccccc12	41.9 µM	35.5 µM	> 100 µM	33.3 µM	–	> 100 µM	14.3 µM	32.2 µM	17.9 µM	42.9 µM	11 µM	36.2 µM	16.1 µM	15.4 µM	13.8 µM	15.8 µM	34.8 µM	–	–	–
CC(CN(CP(=O)([O-])[O-])CP(=O)([O-])[O-])N(CP(=O)([O-])[O-])CP(=O)([O-])[O-].N[C@@H]1CCCC[C@@H]1N.[Pt+2] (configuration not stated)	> 100 µM	> 100 µM	–	> 100 µM	> 100 µM	> 100 µM	–	–	–	–	–	–	> 100 µM	> 100 µM	–	> 100 µM	> 100 µM	> 100 µM	–	–
Cc1cc(Cl)ccc1NC(=O)C1C(=O)N(c2ccc(Cl)cc2C)C(=O)/C1=N\N (configuration not stated)	93.8 µM	> 100 µM	> 100 µM	> 100 µM	> 100 µM	> 100 µM	–	–	–	–	–	–	–	–	–	–	–	–	–	–
N#CC(C#N)=C1NC(=O)C(c2ccccc2)C(=O)N1 (configuration not stated)	> 100 µM	> 100 µM	> 100 µM	–	> 100 µM	> 100 µM	–	–	–	–	–	–	–	–	–	–	–	–	–	–
O=S1(=O)CSc2ccc3ccccc3c2-c2c1ccc1ccccc21	–	> 100 µM	> 100 µM	> 100 µM	> 100 µM	> 100 µM	–	–	–	–	–	–	–	–	–	–	–	–	–	–
CC(C)(C)c1ccccc1NS(=O)(=O)c1ccccc1	88.2 µM	> 100 µM	–	> 100 µM	> 100 µM	–	–	–	–	–	–	–	–	–	–	–	–	–	–	–
Cc1cc2c(=O)cc(-c3ccc(Cl)cc3)oc2c(C(=O)O)c1C	> 100 µM	> 100 µM	–	> 100 µM	> 100 µM	> 100 µM	–	–	–	–	–	–	–	–	–	–	–	–	–	–
O=C(/C=C/c1ccccc1F)C(c1ccccc1)c1ccccc1	25.3 µM	–	41.9 µM	7.66 µM	5.48 µM	5.46 µM	–	–	–	–	–	–	–	–	–	–	–	–	–	–
O=C(NC(=S)NS(=O)(=O)c1ccc(N2N=C3c4ccccc4CC3C2c2cccs2)cc1)c1ccccc1 (configuration not stated)	–	> 100 µM	–	–	84.6 µM	> 100 µM	28.3 µM	> 100 µM	16.1 µM	68 µM	18.8 µM	67.1 µM	–	54 µM	–	–	46.3 µM	27.9 µM	22.5 µM	90.1 µM
CCCCCCCCCCCCC(Br)C(=O)SCCNC(=O)CCNC(=O)[C@@H](O)C(C)(C)COP(=O)(O)OP(=O)(O)OCC1OC(n2cnc3c(N)ncnc32)C(O)C1OP(=O)(O)O (some centres not stated)	> 56.5 µM	> 56.5 µM	–	> 56.5 µM	> 56.5 µM	> 56.5 µM	–	–	–	–	–	–	–	–	–	–	–	–	–	–
COc1ccccc1NC(=O)C1=C(C)NC(C)=C(C(=O)Nc2ccccc2OC)C1c1ccc(C(C)C)cc1	> 100 µM	–	> 100 µM	> 100 µM	> 100 µM	> 100 µM	–	–	–	–	–	–	–	–	–	–	–	–	–	–
COc1ccc2c(CNCCCCO)cc3cc4c(cc3c2c1)OCO4	1.62 µM	2.49 µM	–	3.7 µM	4.13 µM	9.78 µM	1.33 µM	7.09 µM	0.929 µM	4.1 µM	1.45 µM	8.12 µM	0.638 µM	0.68 µM	–	0.891 µM	1.71 µM	1.26 µM	2.06 µM	6.2 µM
COc1nc2c(nc(N)n2C2OC(CO)C(O)C(O)C2O)c(=O)n1C (configuration not stated)	> 100 µM	> 100 µM	> 100 µM	> 100 µM	> 100 µM	> 100 µM	–	–	–	–	–	–	–	–	–	–	–	–	–	–
O=c1c2ccccc2nc(-c2ccc(Cl)cc2)n1O	> 100 µM	> 100 µM	–	65 µM	64.7 µM	> 100 µM	–	> 100 µM	–	> 100 µM	–	58.2 µM	–	–	–	–	–	–	–	> 100 µM
CC(C)(C)c1cc(C(O)(C(F)(F)F)C(F)(F)F)c2c(c1)C(C(F)(F)F)(C(F)(F)F)OC(c1ccccc1)(C(C)(C)C)N2 (configuration not stated)	9.32 µM	12.3 µM	6.69 µM	14 µM	> 100 µM	17.7 µM	–	–	–	–	–	–	–	–	–	–	–	–	–	–
O=C1c2cccnc2-c2nc(-c3ccc([N+](=O)[O-])cc3)cc3c2c1nc1ccccc13	33.4 µM	37.7 µM	–	30 µM	11.3 µM	18.3 µM	2.21 µM	4.88 µM	4.1 µM	23.6 µM	2.44 µM	10.3 µM	9.63 µM	9.37 µM	–	5.03 µM	6.4 µM	3.05 µM	7.97 µM	> 100 µM
CNCCNc1nc2ccccc2c2c(=O)c3cccc(OC)c3sc12	3.49 µM	2.75 µM	–	2.3 µM	3.12 µM	–	1.49 µM	2.95 µM	1.57 µM	3.97 µM	1.23 µM	2.84 µM	1.61 µM	1.38 µM	–	1.01 µM	–	1.69 µM	1.3 µM	2.78 µM
O=C(/C=N/O)c1c(-c2ccccc2)[nH]c(-c2ccccc2)c1-c1ccccc1	83.4 µM	31.6 µM	–	43.4 µM	26.9 µM	34.2 µM	–	12.3 µM	–	85.2 µM	–	25.5 µM	–	–	–	–	–	–	–	28.7 µM
COC(=O)/C(C#N)=C1\N=NNN1CCCc1ccccc1	> 100 µM	> 100 µM	–	> 100 µM	> 100 µM	> 100 µM	–	–	–	–	–	–	–	–	–	–	–	–	–	–
CC1=C(C(=O)Nc2ccc(F)c(Cl)c2)C(c2cccc(Cl)c2)NC(=O)N1 (configuration not stated)	48.2 µM	31.5 µM	–	46.4 µM	37.2 µM	39 µM	20.6 µM	55.8 µM	12.9 µM	37.7 µM	27.5 µM	67.6 µM	18.1 µM	15 µM	–	18.3 µM	18.1 µM	19.6 µM	11.6 µM	25.1 µM
O=C1C(c2ccccc2)=C(c2ccccc2)C(c2ccccc2)/C1=C1\C(=O)C(c2ccccc2)=C(c2ccccc2)C1c1ccccc1 (configuration not stated)	> 100 µM	> 100 µM	> 100 µM	> 100 µM	> 100 µM	–	–	–	–	–	–	–	–	–	–	–	–	–	–	–
